From PubChem BioAssay (NCI)
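Method: 48-hour compound exposure of cells in 96-well plates, five concentrations, linear interpolation of endpoints. GI50: concentration for 50% inhibition of growth. At the TGI there is no net growth.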

Assays:
Experiment in all cases: growth of human tumour cells (NCI), 48 h
SF-295 CNS = system: SF-295 CNS
U251 CNS = system: U251 CNS
UACC-62 melanoma = system: UACC-62 melanoma
M14 melanoma = system: M14 melanoma
RXF 393 renal = system: RXF 393 renal
SW-620 colon = system: SW-620 colon
HL-60(TB) leukemia = system: HL-60(TB) leukemia
OVCAR-8 ovarian = system: OVCAR-8 ovarian
IGROV1 ovarian = system: IGROV1 ovarian
NCI-H226 lung = system: NCI-H226 lung

| SMILES | TGI (SF-295 CNS) | TGI (U251 CNS) | TGI (UACC-62 melanoma) | TGI (M14 melanoma) | TGI (RXF 393 renal) | TGI (SW-620 colon) | TGI (HL-60(TB) leukemia) | TGI (OVCAR-8 ovarian) | TGI (IGROV1 ovarian) | TGI (NCI-H226 lung) | GI50 (SF-295 CNS) | GI50 (U251 CNS) | GI50 (UACC-62 melanoma) | GI50 (RXF 393 renal) | GI50 (SW-620 colon) | GI50 (HL-60(TB) leukemia) | GI50 (NCI-H226 lung) | GI50 (IGROV1 ovarian) | GI50 (M14 melanoma) | GI50 (OVCAR-8 ovarian) |
| --- | --- | --- | --- | --- | --- | --- | --- | --- | --- | --- | --- | --- | --- | --- | --- | --- | --- | --- | --- | --- |
| C[N+]1(C)C/C(=C\c2ccc(O)cc2)C(=O)/C(=C/c2ccc(O)cc2)C1 | > 100 µM | > 100 µM | > 100 µM | > 100 µM | > 100 µM | > 100 µM | > 100 µM | > 100 µM | > 100 µM | – | – | – | – | – | – | – | – | – | – | – |
| NC(=S)N/N=C1\CC(c2ccccc2)Nc2ccccc21 (stereo unspecified) | > 100 µM | > 100 µM | > 100 µM | > 100 µM | – | > 100 µM | 31.3 µM | > 100 µM | > 100 µM | > 100 µM | – | – | – | – | – | – | – | – | – | – |
| CCCCCCCCc1ccc(CCC(N)(CO)CO)cc1 | 3.93 µM | 3.32 µM | 3.31 µM | – | 2.85 µM | 3.08 µM | 3.03 µM | – | 3.9 µM | 3.42 µM | 1.98 µM | 1.8 µM | 1.72 µM | 1.52 µM | 1.64 µM | 1.32 µM | 1.77 µM | 1.89 µM | – | – |
| COc1cc(O)c2c(=O)c(OC)c(-c3ccc(OC)c(OC)c3)oc2c1.[Zn+2] | 35.9 µM | – | > 100 µM | > 100 µM | 45.6 µM | > 100 µM | > 100 µM | > 100 µM | > 100 µM | > 100 µM | 5.57 µM | – | 11.7 µM | – | – | – | – | 29.8 µM | 45.4 µM | 13.2 µM |
| CCOc1ccc(N=Nc2ccc(-c3ccc(N=Nc4c(O)ccc5cc(S(=O)(=O)O)cc(S(=O)(=O)O)c45)cc3)cc2)cc1 | > 100 µM | > 100 µM | > 100 µM | > 100 µM | > 100 µM | > 100 µM | > 100 µM | > 100 µM | > 100 µM | > 100 µM | – | – | – | – | – | – | – | – | – | – |
| CC(=O)Oc1cc(/C=C/c2ccc(O)cc2)cc(OC(C)=O)c1 | > 100 µM | > 100 µM | 67.3 µM | > 100 µM | > 100 µM | > 100 µM | > 100 µM | > 100 µM | > 100 µM | 86.9 µM | – | – | – | – | – | – | – | – | – | – |
| CC(=O)c1c(C)cc2cccc(OC3OC(CO)C(O)C(O)C3O)c2c1O (stereo unspecified) (tested in a mixture with another compound) | > 100 µM | > 100 µM | > 100 µM | > 100 µM | > 100 µM | > 100 µM | > 100 µM | > 100 µM | > 100 µM | > 100 µM | – | – | – | – | – | – | – | – | – | – |
| O=S(=O)([O-])[O-].[Fe+2].[OH2+]c1c(Cl)cc(Cl)cc1/C=N/Nc1ccccn1 | 3.45 µM | 2.74 µM | 3.38 µM | 7.44 µM | 1.9 µM | 3.49 µM | 2.92 µM | 2.94 µM | 3.13 µM | 4.41 µM | – | – | – | – | – | – | – | – | – | – |
| Cc1cccc(/C=C2/C(=O)Nc3ccccc32)n1 | 54.4 µM | > 65.9 µM | 25.8 µM | 31.2 µM | 27.2 µM | 49.7 µM | 39.8 µM | > 80.3 µM | > 100 µM | 35.9 µM | – | – | 10.2 µM | – | – | – | 14.6 µM | 24.4 µM | – | – |
| Cc1ncc(COP(=O)(O)O)c(C)c1O | > 100 µM | > 100 µM | > 100 µM | > 100 µM | > 100 µM | > 100 µM | > 100 µM | > 100 µM | > 100 µM | > 100 µM | – | – | – | – | – | – | – | – | – | – |
| Nc1ccc(S(=O)(=O)NCCS(=O)(=O)O)cc1 | > 100 µM | > 100 µM | > 100 µM | > 100 µM | > 100 µM | > 100 µM | > 100 µM | > 100 µM | > 100 µM | > 100 µM | – | – | – | – | – | – | – | – | – | – |
| N=C(N)SCCN1CCCCC1 | > 100 µM | 44 µM | 55.2 µM | 50.3 µM | 32.6 µM | > 100 µM | 46.3 µM | > 100 µM | > 100 µM | 47.7 µM | – | – | – | – | – | – | – | – | – | – |
| C[N+]1(c2ccccc2)C=C(c2ccccc2)SC1=S (stereo unspecified) | > 100 µM | > 100 µM | > 100 µM | > 100 µM | > 100 µM | > 100 µM | > 100 µM | > 100 µM | > 100 µM | > 100 µM | – | – | – | – | – | – | – | – | – | – |
